Laboratory results taken from ChEMBL document CHEMBL1201862, “PubChem BioAssay data set” (2004).
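How tested: cells in 96-well plates exposed to compound for 48 hours at five concentrations. GI50: concentration for 50% inhibition of growth.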 Activity calls are given as the source filed them. No stated cut-off is given here; in the data, active = GI50 up to about 1.1 µM and inactive = higher.

Tests used:
Test in all cases: inhibition of tumour cell growth, NCI panel, 48 h
MDA-N = system: MDA-N
NCI-H460 = system: NCI-H460
UO-31 = system: UO-31
SW-620 = system: SW-620
UACC-257 = system: UACC-257
HT-29 = system: HT-29
TK-10 = system: TK-10
U-251 = system: U-251
SF-268 = system: SF-268
HOP-62 = system: HOP-62
KM12 = system: KM12
NCI-H23 = system: NCI-H23
COLO 205 = system: COLO 205
SR = system: SR
CCRF-CEM = system: CCRF-CEM
MDA-MB-435 = system: MDA-MB-435
SF-295 = system: SF-295
BT-549 = system: BT-549
SK-MEL-2 = system: SK-MEL-2
SK-MEL-28 = system: SK-MEL-28

| SMILES | GI50 (MDA-N) | GI50 (NCI-H460) | GI50 (UO-31) | GI50 (SW-620) | GI50 (UACC-257) | GI50 (HT-29) | GI50 (TK-10) | GI50 (U-251) | GI50 (SF-268) | GI50 (HOP-62) | GI50 (KM12) | GI50 (NCI-H23) | GI50 (COLO 205) | GI50 (SR) | GI50 (CCRF-CEM) | GI50 (MDA-MB-435) | GI50 (SF-295) | GI50 (BT-549) | GI50 (SK-MEL-2) | GI50 (SK-MEL-28) |
| --- | --- | --- | --- | --- | --- | --- | --- | --- | --- | --- | --- | --- | --- | --- | --- | --- | --- | --- | --- | --- |
| CC(=O)O[C@@]12CO[C@@H]1C[C@H](O)[C@@]1(C)C(=O)[C@H](O)C3=C(C)[C@@H](OC(=O)[C@H](O)[C@@H](NC(=O)OC(C)(C)C)c4ccccc4)C[C@@](O)([C@@H](OC(=O)c4ccccc4)[C@H]21)C3(C)C [DOCETAXEL] | 0.0001 µM (active) | 0.00291 µM (active) | 0.885 µM (active) | < 0.01 µM (active) | 0.455 µM (active) | < 0.01 µM (active) | 0.225 µM (active) | < 0.01 µM (active) | < 0.01 µM (active) | < 0.01 µM (active) | < 0.01 µM (active) | < 0.01 µM (active) | < 0.01 µM (active) | < 0.01 µM (active) | < 0.01 µM (active) | 0.000149 µM (active) | 0.0107 µM (active) | 0.00342 µM (active) | – | – |
| O=C(O)c1cc2ccccc2c(/N=N/c2ccc(S(=O)(=O)Nc3ccccn3)cc2)c1O | > 100 µM (inactive) | > 100 µM (inactive) | > 100 µM (inactive) | > 100 µM (inactive) | > 100 µM (inactive) | > 100 µM (inactive) | > 100 µM (inactive) | > 100 µM (inactive) | > 100 µM (inactive) | > 100 µM (inactive) | > 100 µM (inactive) | – | > 100 µM (inactive) | > 100 µM (inactive) | > 100 µM (inactive) | > 100 µM (inactive) | > 100 µM (inactive) | > 100 µM (inactive) | > 100 µM (inactive) | > 100 µM (inactive) |
| Cc1ccc(/C=C/C(=N/NC(=O)N/N=C(/C=C/c2ccc(C)cc2)C(C)C)C(C)C)cc1 | > 10 µM (inactive) | > 10 µM (inactive) | > 10 µM (inactive) | > 10 µM (inactive) | > 10 µM (inactive) | > 10 µM (inactive) | > 10 µM (inactive) | > 10 µM (inactive) | > 10 µM (inactive) | > 10 µM (inactive) | > 10 µM (inactive) | > 10 µM (inactive) | > 10 µM (inactive) | > 10 µM (inactive) | > 10 µM (inactive) | > 10 µM (inactive) | > 10 µM (inactive) | > 10 µM (inactive) | > 10 µM (inactive) | – |
| C=C1CC(CN2CCC(=O)NC2=O)(c2ccccc2)OC1=O (stereo not drawn) | 10.8 µM (inactive) | 19.4 µM (inactive) | 18 µM (inactive) | 1.94 µM (inactive) | 8.99 µM (inactive) | 7.71 µM (inactive) | 5.94 µM (inactive) | 17.7 µM (inactive) | 23.6 µM (inactive) | 21.3 µM (inactive) | 20.9 µM (inactive) | 7.18 µM (inactive) | 2.36 µM (inactive) | 2.09 µM (inactive) | 1.84 µM (inactive) | 8.89 µM (inactive) | 20.7 µM (inactive) | 7.21 µM (inactive) | 12.6 µM (inactive) | 13.4 µM (inactive) |
| NCCOc1cccc(C2(N3CCCCC3)CCCCC2)c1 | 18.5 µM (inactive) | 41.5 µM (inactive) | 13.7 µM (inactive) | 31.5 µM (inactive) | 19 µM (inactive) | 15.5 µM (inactive) | 33.7 µM (inactive) | 18.2 µM (inactive) | 25.6 µM (inactive) | 92.5 µM (inactive) | 45.3 µM (inactive) | > 100 µM (inactive) | 12.3 µM (inactive) | 16.1 µM (inactive) | 16.7 µM (inactive) | 17.1 µM (inactive) | 28.8 µM (inactive) | 19.1 µM (inactive) | 21.8 µM (inactive) | 18.7 µM (inactive) |
| O=C(Nc1nnc(-c2ccccc2)o1)C(SC(=S)N1CCCC1)c1ccccc1 (stereo not drawn) | 32.1 µM (inactive) | 16.4 µM (inactive) | 13.3 µM (inactive) | 49.1 µM (inactive) | 37 µM (inactive) | 35.1 µM (inactive) | 51.9 µM (inactive) | 23.3 µM (inactive) | – | 24.8 µM (inactive) | 32.8 µM (inactive) | 24.3 µM (inactive) | 37.2 µM (inactive) | 20.1 µM (inactive) | 13.4 µM (inactive) | 29.7 µM (inactive) | 22.9 µM (inactive) | 23.1 µM (inactive) | 25.5 µM (inactive) | 49 µM (inactive) |
| O=C(O)Cn1nnc2c(=O)[nH][nH]c(=O)c21 | > 100 µM (inactive) | > 100 µM (inactive) | > 100 µM (inactive) | – | > 100 µM (inactive) | > 100 µM (inactive) | > 100 µM (inactive) | > 100 µM (inactive) | – | > 100 µM (inactive) | > 100 µM (inactive) | > 100 µM (inactive) | > 100 µM (inactive) | > 100 µM (inactive) | > 100 µM (inactive) | > 100 µM (inactive) | > 100 µM (inactive) | > 100 µM (inactive) | > 100 µM (inactive) | > 100 µM (inactive) |
